Measured values from ChEMBL document CHEMBL1155682, “Cernuosides A and B, two sucrase inhibitors from Pulsatilla cernua” (J Nat Prod, 2000).
pIC50: −log10 of the molar value.

Biological target: Sucrase-isomaltase, intestinal (Rattus norvegicus, UniProt P23739)
Assay: Inhibition of rat intestinal sucrase

Sequence of Sucrase-isomaltase, intestinal (P23739 1-1013 limits assumed): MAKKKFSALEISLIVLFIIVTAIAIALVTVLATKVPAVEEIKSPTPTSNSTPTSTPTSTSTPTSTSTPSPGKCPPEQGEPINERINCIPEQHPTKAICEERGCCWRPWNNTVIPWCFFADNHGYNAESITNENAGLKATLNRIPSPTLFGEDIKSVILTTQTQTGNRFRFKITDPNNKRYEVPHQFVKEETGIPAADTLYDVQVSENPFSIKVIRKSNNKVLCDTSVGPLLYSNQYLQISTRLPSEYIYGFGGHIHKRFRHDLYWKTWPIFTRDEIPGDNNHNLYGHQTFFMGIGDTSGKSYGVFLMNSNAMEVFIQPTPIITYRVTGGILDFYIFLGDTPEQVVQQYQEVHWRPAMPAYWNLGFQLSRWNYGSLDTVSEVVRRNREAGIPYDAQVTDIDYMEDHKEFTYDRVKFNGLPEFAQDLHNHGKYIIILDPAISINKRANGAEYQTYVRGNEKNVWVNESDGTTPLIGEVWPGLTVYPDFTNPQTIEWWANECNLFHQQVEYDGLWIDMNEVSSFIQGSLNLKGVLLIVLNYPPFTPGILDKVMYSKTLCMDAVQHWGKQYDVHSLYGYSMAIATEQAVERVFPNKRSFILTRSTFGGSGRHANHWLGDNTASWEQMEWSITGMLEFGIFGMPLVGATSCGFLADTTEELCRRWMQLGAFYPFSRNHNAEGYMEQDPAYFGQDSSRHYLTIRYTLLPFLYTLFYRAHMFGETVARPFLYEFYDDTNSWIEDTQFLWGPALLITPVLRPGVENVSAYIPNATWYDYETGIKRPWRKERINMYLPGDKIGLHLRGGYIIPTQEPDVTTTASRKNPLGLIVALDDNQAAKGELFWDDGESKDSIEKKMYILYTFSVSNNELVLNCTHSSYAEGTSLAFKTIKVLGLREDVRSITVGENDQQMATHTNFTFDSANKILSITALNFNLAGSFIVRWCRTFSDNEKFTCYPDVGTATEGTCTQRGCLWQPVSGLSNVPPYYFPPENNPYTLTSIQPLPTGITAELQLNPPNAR
Sequence of Sucrase-isomaltase, intestinal (P23739 1014-1841 limits assumed): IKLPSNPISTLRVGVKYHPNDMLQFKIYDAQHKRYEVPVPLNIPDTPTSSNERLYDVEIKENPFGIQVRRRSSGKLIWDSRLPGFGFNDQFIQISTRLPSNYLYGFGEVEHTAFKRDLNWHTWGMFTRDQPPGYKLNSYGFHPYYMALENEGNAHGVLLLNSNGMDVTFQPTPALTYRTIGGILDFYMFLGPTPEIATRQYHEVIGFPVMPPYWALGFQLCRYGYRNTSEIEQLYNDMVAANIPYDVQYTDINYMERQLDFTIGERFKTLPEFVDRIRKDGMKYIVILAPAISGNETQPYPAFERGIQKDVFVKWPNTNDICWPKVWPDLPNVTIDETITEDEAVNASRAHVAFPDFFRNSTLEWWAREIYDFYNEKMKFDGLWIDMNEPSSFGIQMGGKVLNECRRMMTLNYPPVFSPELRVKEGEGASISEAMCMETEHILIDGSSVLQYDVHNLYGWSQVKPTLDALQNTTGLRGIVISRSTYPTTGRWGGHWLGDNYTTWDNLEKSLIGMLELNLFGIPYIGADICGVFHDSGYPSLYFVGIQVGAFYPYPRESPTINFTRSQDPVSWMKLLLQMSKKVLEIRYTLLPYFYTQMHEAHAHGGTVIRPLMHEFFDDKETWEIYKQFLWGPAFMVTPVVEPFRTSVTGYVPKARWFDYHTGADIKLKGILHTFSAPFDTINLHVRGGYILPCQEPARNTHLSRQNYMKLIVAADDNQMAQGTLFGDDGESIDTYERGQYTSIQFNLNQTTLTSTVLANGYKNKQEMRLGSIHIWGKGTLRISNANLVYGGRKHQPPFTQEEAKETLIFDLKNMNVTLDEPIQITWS

`C[C@@H]1O[C@@H](O[C@H]2[C@H](O)[C@@H](O)[C@H](OC[C@H]3O[C@@H](OC(=O)[C@]45CCC(C)(C)C[C@H]4C4=CC[C@@H]6[C@@]7(C)CC[C@H](O[C@@H]8OC[C@H](O[C@@H]9O[C@H](CO)[C@@H](O)[C@H](O)[C@H]9O)[C@H](O)[C@H]8O[C@@H]8O[C@@H](C)[C@H](O)[C@@H](O[C@@H]9O[C@H](CO)[C@@H](O)[C@H](O)[C@H]9O)[C@H]8O)C(C)(C)[C@@H]7CC[C@@]6(C)[C@]4(C)CC5)[C@H](O)[C@@H](O)[C@@H]3O)O[C@@H]2CO)[C@H](O)[C@H](O)[C@H]1O` [CERNUOSIDE A] showed a pIC50 of 4.23.
With `C[C@@H]1O[C@@H](O[C@H]2[C@H](O)[C@@H](O)[C@H](OC[C@H]3O[C@@H](OC(=O)[C@]45CCC(C)(C)C[C@H]4C4=CC[C@@H]6[C@@]7(C)CC[C@H](O[C@@H]8OC[C@H](O[C@@H]9O[C@H](CO)[C@@H](O)[C@H](O)[C@H]9O)[C@H](O)[C@H]8O[C@@H]8O[C@@H](C)[C@H](O)[C@@H](O[C@@H]9O[C@H](CO)[C@@H](O)[C@H](O)[C@H]9O)[C@H]8O)[C@@](C)(CO)[C@@H]7CC[C@@]6(C)[C@]4(C)CC5)[C@H](O)[C@@H](O)[C@@H]3O)O[C@@H]2CO)[C@H](O)[C@H](O)[C@H]1O` [CERNUOSIDE B] the pIC50 was 4.34.
